# Data published in patent US20240158446A1, “CYCLIC COMPOUND HAVING SELECTIVE INHIBITORY ACTION ON KRAS OVER HRAS AND NRAS” (CHUGAI SEIYAKU KABUSHIKI KAISHA, priority 2021, published 2024).
# Read-outs that look alike come from different tables or passages of the source.
# Tests used:
# [1] = target: GDP-bound KRAS wild-type protein (Homo sapiens, UniProt P01116); test: Binding to KRAS by surface plasmon resonance (SPR), Single Cycle Kinetics
# [2] = target: GDP-bound NRAS wild-type protein (Homo sapiens, UniProt P01111); test: Binding to NRAS by surface plasmon resonance (SPR), Single Cycle Kinetics; details: for NRAS/KRAS (ratio of KD value for NRAS to KD value for KRAS): GDP-bound NRAS wild-type protein vs GDP-bound KRAS wild-type protein; for NRAS/KRAS (ratio of KD value with respect to GDP-bound NRAS wild-type protein to KD value with respect to KRAS): SPR KD ratio NRAS/KRAS, class symbols
# [3] = target: GDP-bound HRAS wild-type protein (Homo sapiens, UniProt P01112); test: Binding to HRAS by surface plasmon resonance (SPR), Single Cycle Kinetics; details: for HRAS/KRAS (ratio of KD value for HRAS to KD value for KRAS): GDP-bound HRAS wild-type protein vs GDP-bound KRAS wild-type protein; for HRAS/KRAS (ratio of KD value with respect to GDP-bound HRAS wild-type protein to KD value with respect to KRAS): SPR KD ratio HRAS/KRAS, class symbols
# [4] = test system: human lung cancer strain NCI-H441;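 note: cell proliferation inhibition after four days measured by CellTiter-Glo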
# [5] = SPR, Single Cycle Kinetics, 1:1 binding model, GDP-bound KRAS wild-type protein, read-out: KRAS KD
# [6] = SPR, Single Cycle Kinetics, 1:1 binding model, read-out: KD value with respect to GDP-bound KRAS wild-type protein
# [7] = read-out: NCI-H441 cell proliferation inhibitory activity, 50% proliferation inhibitory concentration (IC50 value), NCI-H441, four days, CellTiter-Glo
# [8] = SPR, Single Cycle Kinetics, GDP-bound KRAS wild-type protein, read-out: KRAS KD
# [9] = SPR Single Cycle Kinetics, GDP-bound KRAS wild-type protein, 1:1 binding model, read-out: KRAS KD
# GDP-bound HRAS wild-type protein, sequence (P01112 whole entry): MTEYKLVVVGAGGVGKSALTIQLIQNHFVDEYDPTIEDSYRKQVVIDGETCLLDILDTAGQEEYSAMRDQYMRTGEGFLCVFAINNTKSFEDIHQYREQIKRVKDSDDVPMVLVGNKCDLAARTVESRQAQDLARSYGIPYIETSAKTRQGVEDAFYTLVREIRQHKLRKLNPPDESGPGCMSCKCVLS
# GDP-bound KRAS wild-type protein, sequence (P01116 whole entry): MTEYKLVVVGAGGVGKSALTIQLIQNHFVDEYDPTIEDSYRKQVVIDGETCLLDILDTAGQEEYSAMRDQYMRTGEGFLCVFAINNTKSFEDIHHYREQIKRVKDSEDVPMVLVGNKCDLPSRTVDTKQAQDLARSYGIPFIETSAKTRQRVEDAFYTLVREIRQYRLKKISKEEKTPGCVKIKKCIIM
# GDP-bound NRAS wild-type protein, sequence (P01111 whole entry): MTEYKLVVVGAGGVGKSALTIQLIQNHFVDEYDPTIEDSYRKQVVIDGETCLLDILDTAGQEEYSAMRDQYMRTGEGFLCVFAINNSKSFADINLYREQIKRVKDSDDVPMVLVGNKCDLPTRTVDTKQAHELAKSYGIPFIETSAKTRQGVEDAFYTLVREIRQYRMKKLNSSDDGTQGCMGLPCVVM
structure (smiles),measurement,setting,value
CCO[C@@H]1C[C@H]2C(=O)NC3(CCC3)C(=O)N(C)[C@@H](C3CCCC3)C(=O)N(C)[C@H](C(=O)N3CCOCC3)CC(=O)N(C)[C@@H](CC3CCCCC3)C(=O)N[C@@H]([C@@H](C)CC)C(=O)N(C)CC(=O)N(C)[C@H]3C/C=C\CCN(C3=O)[C@@H](Cc3ccc(C(F)(F)F)cc3)C(=O)N(C)CC(=O)N[C@@H](CCc3cc(F)c(C(F)(F)F)c(F)c3)C(=O)N2C1 [PP1418],Kd,[1]; [5],0.24 nM
same,NRAS/KRAS (ratio of KD value for NRAS to KD value for KRAS),"[2]; SPR, KD ratio class",AA (a compound having 20 or more is denoted as AA)
same,HRAS/KRAS (ratio of KD value for HRAS to KD value for KRAS),"[3]; SPR, KD ratio class",A (a compound having 10 or more and less than 20 is denoted as A)
same,IC50,[4],29.9 nM
CC[C@H](C)[C@@H]1NC(=O)[C@@H]2CCCCc3ccc(cc3)C[C@@H](C(=O)N(C)CC(=O)N[C@@H](CCc3ccc(C(F)(F)F)c(OC)c3)C(=O)N3CC4(CC4)C[C@H]3C(=O)NC3(CC(C)(C)C3)C(=O)N(C)[C@@H](C3CCCC3)C(=O)N(C)[C@H](C(=O)N(C)CC)CC(=O)N2C)N2CC/C=C\C[C@@H](C2=O)N(C)C(=O)CN(C)C1=O [PP3081],Kd,[1]; [6],0.068 nM
same,NRAS/KRAS (ratio of KD value for NRAS to KD value for KRAS),[2]; SPR,A (a compound having 10 or more and less than 20 is denoted as A)
same,ratio of the KD value with respect to GDP-bound NRAS wild-type protein to the KD value with respect to KRAS,[2]; SPR,A (a compound having 10 or more and less than 20 is denoted as A)
same,HRAS/KRAS (ratio of KD value for HRAS to KD value for KRAS),[3]; SPR,B (a compound having 3 or more and less than 10 is denoted as B)
same,ratio of the KD value with respect to GDP-bound HRAS wild-type protein to the KD value with respect to KRAS,[3]; SPR,B (a compound having 3 or more and less than 10 is denoted as B)
same,IC50,[4]; [7],1.9 nM
CC[C@H](C)[C@@H]1NC(=O)[C@H](CC(C)C)N(C)C(=O)C[C@@H](C(=O)N2CCOCC2)N(C)C(=O)[C@H](C2CCCC2)N(C)C(=O)C2(CCC2)NC(=O)[C@@H]2CCCN2C(=O)[C@H](CCc2ccc(C(F)(F)F)c(Cl)c2)NC(=O)CN(C)C(=O)[C@H](Cc2ccc(C(F)(F)F)cc2)N2C[C@H](C)CC[C@@H](C2=O)N(C)C(=O)[C@@H]2CCN2C1=O (stereo in doubt) [PP1339],Kd,[1]; [5],0.65 nM
same,NRAS/KRAS (ratio of KD value for NRAS to KD value for KRAS),"[2]; SPR, KD ratio class",A (a compound having 10 or more and less than 20 is denoted as A)
same,HRAS/KRAS (ratio of KD value for HRAS to KD value for KRAS),"[3]; SPR, KD ratio class",B (a compound having 3 or more and less than 10 is denoted as B)
same,IC50,[4],42.1 nM
CCC[C@H]1C(=O)N[C@@H]([C@@H](C)CC)C(=O)N(C2CC2)CC(=O)N(C)[C@H]2C/C=C\CCN(C2=O)[C@@H](Cc2ccc(C(F)(F)F)cc2)C(=O)N(C)CC(=O)N[C@@H](CCc2cc(F)c(C(F)(F)F)c(F)c2)C(=O)N2C[C@H](OCC)C[C@H]2C(=O)N(C)C2(CCC2)C(=O)N(C)[C@@H](C2CCCC2)C(=O)N(C)[C@H](C(=O)N2CCCC2)CC(=O)N1C [PP3112],Kd,[1]; [6],3.1 nM
same,Kd,[1]; [8],3.1 nM
same,NRAS/KRAS (ratio of KD value for NRAS to KD value for KRAS),[2]; SPR,A (a compound having 10 or more and less than 20 is denoted as A)
same,ratio of the KD value with respect to GDP-bound NRAS wild-type protein to the KD value with respect to KRAS,[2]; SPR,A (a compound having 10 or more and less than 20 is denoted as A)
same,HRAS/KRAS (ratio of KD value for HRAS to KD value for KRAS),[3]; SPR,B (a compound having 3 or more and less than 10 is denoted as B)
same,ratio of the KD value with respect to GDP-bound HRAS wild-type protein to the KD value with respect to KRAS,[3]; SPR,B (a compound having 3 or more and less than 10 is denoted as B)
same,IC50,[4]; [7],32.4 nM
CCO[C@@H]1C[C@H]2C(=O)NC3(CC(C)(C)C3)C(=O)N(C)[C@@H](C3CCCC3)C(=O)N(C)[C@H](C(=O)N3CCCCC3)CC(=O)N(C)[C@@H](COC)C(=O)N[C@@H]([C@@H](C)CC)C(=O)N(C)CC(=O)N(C)[C@H]3C/C=C\CCN(C3=O)[C@@H](Cc3ccc(C(F)(F)F)cc3)C(=O)N(C)CC(=O)N[C@@H](CCc3ccc(Cl)c(Cl)c3)C(=O)N2C1 [PP2670],Kd,[1]; [9],0.48 nM
same,NRAS/KRAS (ratio of KD value with respect to GDP-bound NRAS wild-type protein to KD value with respect to KRAS),[2],AA (a compound having 20 or more is denoted as AA)
same,HRAS/KRAS (ratio of KD value with respect to GDP-bound HRAS wild-type protein to KD value with respect to KRAS),[3],A (a compound having 10 or more and less than 20 is denoted as A)
same,IC50,[4],25.2 nM
"CC[C@H](C)[C@@H]1NC(=O)[C@H](CC(C)C)N(C)C(=O)C[C@@H](C(=O)N(C)C)N(C)C(=O)[C@H](C2CCCC2)N(C)C(=O)C2(CCC2)NC(=O)[C@@H]2CCCN2C(=O)[C@H](CCc2cc(F)c(C(F)(F)F)c(F)c2)NC(=O)CN(C)C(=O)[C@H](Cc2ccc(C(F)(F)F)cc2)N2CC/C=C\C[C@@H](C2=O)N(C)C(=O)CN(C)C1=O [PP1272, (2S,8S,14S,20S,23S,27S,30S,36S,38Z)-20-cyclopentyl-8-[2-[3,5-difluoro-4-(trifluoromethyl)phenyl]ethyl]-27-isobutyl-N,N,4,19,22,26,32,35-octamethyl-30-[(1S)-1-methylpropyl]-3,6,9,15,18,21,25,28,31,34,42-undecaoxo-2-[[4-(trifluoromethyl)phenyl]methyl]spiro[1,4,7,10,16,19,22,26,29,32,35-undecazatricyclo[34.5.1.0^10,14]dotetracont-38-ene-17,1′-cyclobutane]-23-carboxamide]",Kd,[1]; [5],0.11 nM
same,NRAS/KRAS (ratio of KD value for NRAS to KD value for KRAS),"[2]; SPR, KD ratio class",A (a compound having 10 or more and less than 20 is denoted as A)
same,HRAS/KRAS (ratio of KD value for HRAS to KD value for KRAS),"[3]; SPR, KD ratio class",A (a compound having 10 or more and less than 20 is denoted as A)
same,IC50,[4],24 nM
CCO[C@@H]1C[C@H]2C(=O)NC3(CC(C)(C)C3)C(=O)N(C)[C@@H](C3CCCC3)C(=O)N(C)[C@H](C(=O)N(C)CC)CC(=O)N(C)[C@H]3CCCC/C=C/c4ccc(cc4)C[C@@H](C(=O)N(C)CC(=O)N[C@@H](CCc4cc(F)c(C(F)(F)F)c(F)c4)C(=O)N2C1)N1CC/C=C\C[C@@H](C1=O)N(C)C(=O)CN(C)C(=O)[C@H]([C@@H](C)CC)NC3=O [PP1829],Kd,[1]; [8],0.033 nM
same,NRAS/KRAS (KD ratio),"[2]; ratio of KD for GDP-bound NRAS wild-type protein to KD for KRAS, SPR",A (a compound having 10 or more and less than 20 is denoted as A)
same,HRAS/KRAS (KD ratio),"[3]; ratio of KD for GDP-bound HRAS wild-type protein to KD for KRAS, SPR",B (a compound having 3 or more and less than 10 is denoted as B)
same,IC50,[4],2.3 nM
CCO[C@@H]1C[C@H]2C(=O)NC3(CC(C)(C)C3)C(=O)N(C)[C@@H](C3CCCC3)C(=O)N(C)[C@H](C(=O)N(C)C)CC(=O)N(C)[C@@H](COC)C(=O)N[C@@H]([C@@H](C)CC)C(=O)N(C)CC(=O)N(C)[C@H]3C/C=C\CCN(C3=O)[C@@H](Cc3ccc(C)cc3)C(=O)N(C)CC(=O)N[C@@H](CCc3ccc(C(F)(F)F)c(Cl)c3)C(=O)N2C1 [PP2389],Kd,[1]; [8],0.079 nM
same,NRAS/KRAS (ratio of KD value for NRAS to KD value for KRAS),[2]; SPR,A (a compound having 10 or more and less than 20 is denoted as A)
same,HRAS/KRAS (ratio of KD value for HRAS to KD value for KRAS),[3]; SPR,B (a compound having 3 or more and less than 10 is denoted as B)
same,IC50,[4],21.3 nM
CC[C@H](C)[C@@H]1NC(=O)[C@H](COC)N(C)C(=O)C[C@@H](C(=O)N(CC)CC)N(C)C(=O)[C@H](C2CCCC2)N(C)C(=O)C2(CC(C)(C)C2)NC(=O)[C@@H]2C[C@H](C)CN2C(=O)[C@H](CCc2ccc(C(F)(F)F)c(OC)c2)NC(=O)CN(C)C(=O)[C@H](Cc2ccc(C)cc2)N2CC/C=C\C[C@@H](C2=O)N(C)C(=O)CN(C)C1=O [PP2441],Kd,[1]; [8],0.29 nM
same,NRAS/KRAS (ratio of KD value for NRAS to KD value for KRAS),[2]; SPR,AA (a compound having 20 or more is denoted as AA)
same,HRAS/KRAS (ratio of KD value for HRAS to KD value for KRAS),[3]; SPR,A (a compound having 10 or more and less than 20 is denoted as A)
same,IC50,[4],22.9 nM
CCC[C@H]1C(=O)N[C@@H]([C@@H](C)CC)C(=O)N(C)CC(=O)N(C)[C@H]2C/C=C\CCN(C2=O)[C@@H](Cc2ccc(C)cc2)C(=O)N(C)CC(=O)N[C@@H](CCc2ccc(Cl)c(Cl)c2)C(=O)N2C[C@H](OCC)C[C@H]2C(=O)NC2(CC(C)(C)C2)C(=O)N(C)[C@@H](CC(C)(C)C)C(=O)N(C)[C@H](C(=O)N(C)C)CC(=O)N1C [PP2714],Kd,[1]; [9],0.25 nM
same,NRAS/KRAS (ratio of KD value with respect to GDP-bound NRAS wild-type protein to KD value with respect to KRAS),[2],A (a compound having 10 or more and less than 20 is denoted as A)
same,HRAS/KRAS (ratio of KD value with respect to GDP-bound HRAS wild-type protein to KD value with respect to KRAS),[3],A (a compound having 10 or more and less than 20 is denoted as A)
same,IC50,[4],13.2 nM
CCC[C@H]1C(=O)N[C@@H](CC(C)C)C(=O)N(CC)CC(=O)N(C)[C@H]2C/C=C\CCN(C2=O)[C@@H](Cc2ccc(C)cc2)C(=O)N(C)CC(=O)N[C@@H](CCc2cc(F)c(C(F)(F)F)c(F)c2)C(=O)N2C[C@H](OCC)C[C@H]2C(=O)NC2(CC(C)(C)C2)C(=O)N(C)[C@@H](C2CCCC2)C(=O)N(C)[C@H](C(=O)N(C)C)CC(=O)N1C [PP2516],Kd,[1]; [8],2.9 nM
same,NRAS/KRAS (ratio of KD value for NRAS to KD value for KRAS),[2]; SPR,A (a compound having 10 or more and less than 20 is denoted as A)
same,HRAS/KRAS (ratio of KD value for HRAS to KD value for KRAS),[3]; SPR,B (a compound having 3 or more and less than 10 is denoted as B)
same,IC50,[4],124 nM
